Data published in ChEMBL document CHEMBL5356978 (Bioorg Med Chem Lett, 2024).
Calls of active or inactive are those of the source. The rule behind the calls is not given here.

system: not listed separately; experiment: […] Colorectal cancer cells (unknown origin) assessed as regulation of immune microenvironment by measuring granzyme B positive cells at 5 to 10 uM incubated for 24 hrs by flow cytometry analysis (reference value: 16.2%); assay type: functional; design: scale not given: the % may be the effect or the level left; conditions: dose 5-10 µM

| SMILES | Activity |
| --- | --- |
| Cc1ccc(-c2c(O)cc(O)c3c(=O)c(O)c(-c4ccc(O)c(O)c4)oc23)cc1 | 44.5% |

system: not listed separately; experiment: Inhibition of Wnt/beta-catenin signaling transactivation in human HCT-116 cells assessed as reduction in downstream nuclear transcription ability by TCF/LEF reporter assay; conditions: not given

| SMILES | IC50 |
| --- | --- |
| Cc1ccc(-c2c(O)cc(O)c3c(=O)c(O)c(-c4ccc(O)c(O)c4)oc23)cc1 | 760 nM |
| O=c1c(O)c(-c2ccc(O)c(O)c2)oc2cc(O)cc(O)c12 [QUERCETIN] | 4870 nM |

system: CT26; experiment: Antitumor activity against mouse CT26 cells implanted in mouse assessed as tumor growth inhibition at 15 mg/kg, ip administered for 7 days relative to control; assay type: functional; conditions: CT26, 168 h, time 7 day, read-out: TGI

| SMILES | inhibition in vivo at 15 mg/kg |
| --- | --- |
| Cc1ccc(-c2c(O)cc(O)c3c(=O)c(O)c(-c4ccc(O)c(O)c4)oc23)cc1 | 76% |
| O=c1c(O)c(-c2ccc(O)c(O)c2)oc2cc(O)cc(O)c12 [QUERCETIN] | 43.1% |

system: HCT-116; experiment: Antiproliferative activity against human HCT-116 cells assessed as inhibition of cell proliferation by CCK8 assay; conditions: not given

| SMILES | IC50 |
| --- | --- |
| Cc1ccc(-c2c(O)cc(O)c3c(=O)c(O)c(-c4ccc(O)c(O)c4)oc23)cc1 | 1.7 µM |
| O=c1c(O)c(-c2ccc(O)c(O)c2)oc2cc(O)cc(O)c12 [QUERCETIN] | 11.4 µM |

system: CT26; experiment: Antimigratory activity in mouse CT26 cells assessed as reduction in cell migration incubated for 24 hrs by transwell assay; assay type: functional, cell-based; conditions: dose 5-20 µM

| SMILES | Activity |
| --- | --- |
| Cc1ccc(-c2c(O)cc(O)c3c(=O)c(O)c(-c4ccc(O)c(O)c4)oc23)cc1 | Dose-Dependent Effect |
| O=c1c(O)c(-c2ccc(O)c(O)c2)oc2cc(O)cc(O)c12 [QUERCETIN] | Dose-Dependent Effect |

system: CT26; experiment: Induction of apoptosis in mouse CT26 cells at 5 uM incubated for 24 hrs by annexin V-FITC/PI staining based flow cytometry analysis relative to control; assay type: functional; conditions: not given

| SMILES | Activity |
| --- | --- |
| Cc1ccc(-c2c(O)cc(O)c3c(=O)c(O)c(-c4ccc(O)c(O)c4)oc23)cc1 | 29.11% |
| O=c1c(O)c(-c2ccc(O)c(O)c2)oc2cc(O)cc(O)c12 [QUERCETIN] | 17.36% |

system: not listed separately; experiment: Toxicity in mouse implanted with mouse CT26 cells assessed as reduction in body weight at 15 mg/kg, ip administered for 7 days and measured for 11 days; assay type: organism-based; conditions: in vivo, 168 h, time 7 day

| SMILES | Activity |
| --- | --- |
| Cc1ccc(-c2c(O)cc(O)c3c(=O)c(O)c(-c4ccc(O)c(O)c4)oc23)cc1 | Non-Toxic |
| O=c1c(O)c(-c2ccc(O)c(O)c2)oc2cc(O)cc(O)c12 [QUERCETIN] | Non-Toxic |

system: CT26; experiment: Antiproliferative activity against mouse CT26 cells harboring active Wnt/beta-catenin signal assessed as inhibition of cell proliferation by CCK8 assay; conditions: not given

| SMILES | IC50 |
| --- | --- |
| COC(=O)c1ccc(-c2c(O)cc(O)c3c(=O)c(O)c(-c4ccc(O)c(O)c4)oc23)cc1 | 15.1 µM |
| O=c1c(O)c(-c2ccc(O)c(O)c2)oc2c(-c3ccc(F)cc3)c(O)cc(O)c12 | 3.32 µM |
| COc1ccc(-c2oc3c(-c4ccccc4)c(OC)cc(OC)c3c(=O)c2OC)cc1OC | 15.1 µM |
| COc1ccc(-c2oc3c(-c4ccc(C(=O)O)cc4)c(OC)cc(OC)c3c(=O)c2OC)cc1OC | 14.1 µM |
| COc1ccc(-c2oc3c(-c4ccncc4)c(OC)cc(OC)c3c(=O)c2OC)cc1OC | 14.2 µM |
| COc1ccc(-c2c(OC)cc(OC)c3c(=O)c(OC)c(-c4ccc(OC)c(OC)c4)oc23)cc1 | 27.8 µM |
| COc1ccc(-c2oc3c(-c4ccc(F)c(F)c4)c(OC)cc(OC)c3c(=O)c2OC)cc1OC | 32.1 µM |
| Cc1ccc(-c2c(O)cc(O)c3c(=O)c(O)c(-c4ccc(O)c(O)c4)oc23)cc1 | 1.69 µM |

system: CT26; experiment: Antitumor activity against mouse CT26 cells implanted in mouse assessed as reduction in tumor size at 15 mg/kg, ip administered for 7 days; assay type: functional, organism-based; conditions: time 7.0 day

| SMILES | Activity |
| --- | --- |
| Cc1ccc(-c2c(O)cc(O)c3c(=O)c(O)c(-c4ccc(O)c(O)c4)oc23)cc1 | Active |

biological target: T1, beta-catenin-B-cell lymphoma 9 protein complex (Homo sapiens, UniProt P35222); experiment: Inhibition of full length beta-catenin (unknown origin)/FAM labeled BCL9 (350 to 375 residues) (unknown origin) protein-protein interaction by competitive FP assay; assay type: protein-complex assay; conditions: not given
T1 sequence (P35222 whole entry): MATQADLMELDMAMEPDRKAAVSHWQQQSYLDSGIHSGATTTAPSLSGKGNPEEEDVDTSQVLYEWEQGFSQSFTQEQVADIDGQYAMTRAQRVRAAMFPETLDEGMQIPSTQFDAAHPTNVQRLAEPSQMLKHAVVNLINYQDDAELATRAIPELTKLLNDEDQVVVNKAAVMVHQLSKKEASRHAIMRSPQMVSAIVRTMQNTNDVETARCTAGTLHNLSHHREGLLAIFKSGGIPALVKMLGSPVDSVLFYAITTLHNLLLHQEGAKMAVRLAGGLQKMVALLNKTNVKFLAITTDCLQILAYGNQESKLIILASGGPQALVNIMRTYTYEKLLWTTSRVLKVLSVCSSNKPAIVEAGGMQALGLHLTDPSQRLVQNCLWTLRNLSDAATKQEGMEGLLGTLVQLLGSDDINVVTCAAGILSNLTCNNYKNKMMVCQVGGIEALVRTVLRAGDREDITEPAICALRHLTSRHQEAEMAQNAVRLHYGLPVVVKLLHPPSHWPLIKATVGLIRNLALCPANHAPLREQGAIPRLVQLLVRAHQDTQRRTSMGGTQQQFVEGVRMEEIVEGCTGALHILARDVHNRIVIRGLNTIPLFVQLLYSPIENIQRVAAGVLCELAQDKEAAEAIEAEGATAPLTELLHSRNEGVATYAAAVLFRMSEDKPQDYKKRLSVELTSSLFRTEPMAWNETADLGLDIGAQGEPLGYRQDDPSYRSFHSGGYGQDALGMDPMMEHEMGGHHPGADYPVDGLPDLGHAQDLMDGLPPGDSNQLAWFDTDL
T1 sequence (O00512 whole entry): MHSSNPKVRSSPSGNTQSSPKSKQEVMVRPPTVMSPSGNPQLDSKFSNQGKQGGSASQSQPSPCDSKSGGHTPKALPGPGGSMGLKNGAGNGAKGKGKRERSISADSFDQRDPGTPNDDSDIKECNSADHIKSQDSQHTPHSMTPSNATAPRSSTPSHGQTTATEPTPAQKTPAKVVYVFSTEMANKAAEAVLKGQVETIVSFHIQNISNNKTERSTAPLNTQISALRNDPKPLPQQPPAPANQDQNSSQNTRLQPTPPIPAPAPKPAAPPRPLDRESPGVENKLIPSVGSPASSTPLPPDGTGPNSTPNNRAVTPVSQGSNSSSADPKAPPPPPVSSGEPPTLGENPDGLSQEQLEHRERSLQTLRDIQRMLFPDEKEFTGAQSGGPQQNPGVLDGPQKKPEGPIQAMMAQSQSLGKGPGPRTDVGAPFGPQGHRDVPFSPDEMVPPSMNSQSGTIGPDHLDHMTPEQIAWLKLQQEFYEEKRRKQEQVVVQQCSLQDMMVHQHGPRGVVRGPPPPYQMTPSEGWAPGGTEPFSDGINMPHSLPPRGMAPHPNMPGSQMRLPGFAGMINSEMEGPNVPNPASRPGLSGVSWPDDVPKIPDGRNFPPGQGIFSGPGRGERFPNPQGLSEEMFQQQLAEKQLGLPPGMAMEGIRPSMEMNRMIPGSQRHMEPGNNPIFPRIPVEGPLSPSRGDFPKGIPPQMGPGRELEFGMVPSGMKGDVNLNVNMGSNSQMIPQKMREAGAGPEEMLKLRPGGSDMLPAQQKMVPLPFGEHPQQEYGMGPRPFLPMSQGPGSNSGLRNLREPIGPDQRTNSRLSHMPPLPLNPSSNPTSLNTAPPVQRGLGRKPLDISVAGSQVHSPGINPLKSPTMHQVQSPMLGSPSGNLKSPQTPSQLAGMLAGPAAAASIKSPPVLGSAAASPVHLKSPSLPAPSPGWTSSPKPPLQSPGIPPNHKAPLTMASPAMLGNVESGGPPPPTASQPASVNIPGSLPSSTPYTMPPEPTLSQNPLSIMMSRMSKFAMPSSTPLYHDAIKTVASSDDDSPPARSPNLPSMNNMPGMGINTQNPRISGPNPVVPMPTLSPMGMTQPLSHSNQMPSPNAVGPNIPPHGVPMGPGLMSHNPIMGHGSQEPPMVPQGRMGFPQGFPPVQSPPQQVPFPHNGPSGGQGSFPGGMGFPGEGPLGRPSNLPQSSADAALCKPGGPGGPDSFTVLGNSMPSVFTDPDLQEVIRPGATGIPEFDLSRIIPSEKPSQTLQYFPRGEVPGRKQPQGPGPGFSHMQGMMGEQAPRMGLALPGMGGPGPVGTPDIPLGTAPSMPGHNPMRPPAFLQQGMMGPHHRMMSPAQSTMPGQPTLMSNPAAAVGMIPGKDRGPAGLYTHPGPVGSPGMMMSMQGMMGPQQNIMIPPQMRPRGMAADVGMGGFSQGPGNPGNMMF

| SMILES | IC50 |
| --- | --- |
| COC(=O)c1ccc(-c2c(O)cc(O)c3c(=O)c(O)c(-c4ccc(O)c(O)c4)oc23)cc1 | 2.99 µM |
| O=c1c(O)c(-c2ccc(O)c(O)c2)oc2c(-c3ccc(F)cc3)c(O)cc(O)c12 | 2.35 µM |
| COc1ccc(-c2oc3c(-c4ccccc4)c(OC)cc(OC)c3c(=O)c2OC)cc1OC | 12.1 µM |
| COc1ccc(-c2oc3c(-c4ccc(C(=O)O)cc4)c(OC)cc(OC)c3c(=O)c2OC)cc1OC | 4.52 µM |
| COc1ccc(-c2oc3c(-c4ccncc4)c(OC)cc(OC)c3c(=O)c2OC)cc1OC | 2.75 µM |
| COc1ccc(-c2c(OC)cc(OC)c3c(=O)c(OC)c(-c4ccc(OC)c(OC)c4)oc23)cc1 | 17.3 µM |
| COc1ccc(-c2oc3c(-c4ccc(F)c(F)c4)c(OC)cc(OC)c3c(=O)c2OC)cc1OC | 5.78 µM |

system: CT26; experiment: Induction of apoptosis in mouse CT26 cells at 20 uM incubated for 24 hrs by annexin V-FITC/PI staining based flow cytometry analysis relative to control; assay type: functional; conditions: not given

| SMILES | Activity |
| --- | --- |
| Cc1ccc(-c2c(O)cc(O)c3c(=O)c(O)c(-c4ccc(O)c(O)c4)oc23)cc1 | 34.03% |
| O=c1c(O)c(-c2ccc(O)c(O)c2)oc2cc(O)cc(O)c12 [QUERCETIN] | 23.89% |

system: not listed separately; experiment: Inhibition of Wnt/beta-catenin signaling pathway in mouse CT26 cells assessed as downregulation of AXIN2 expression incubated for 24 hrs by qPCR analysis; conditions: CT26, 24 h

| SMILES | IC50 |
| --- | --- |
| COC(=O)c1ccc(-c2c(O)cc(O)c3c(=O)c(O)c(-c4ccc(O)c(O)c4)oc23)cc1 | 5.05 µM |
| O=c1c(O)c(-c2ccc(O)c(O)c2)oc2c(-c3ccc(F)cc3)c(O)cc(O)c12 | 0.8 µM |
| COc1ccc(-c2oc3c(-c4ccccc4)c(OC)cc(OC)c3c(=O)c2OC)cc1OC | 1.11 µM |
| COc1ccc(-c2oc3c(-c4ccc(C(=O)O)cc4)c(OC)cc(OC)c3c(=O)c2OC)cc1OC | 10.4 µM |
| COc1ccc(-c2oc3c(-c4ccncc4)c(OC)cc(OC)c3c(=O)c2OC)cc1OC | 3.1 µM |
| COc1ccc(-c2c(OC)cc(OC)c3c(=O)c(OC)c(-c4ccc(OC)c(OC)c4)oc23)cc1 | 1.14 µM |
| COc1ccc(-c2oc3c(-c4ccc(F)c(F)c4)c(OC)cc(OC)c3c(=O)c2OC)cc1OC | 12 µM |
| Cc1ccc(-c2c(O)cc(O)c3c(=O)c(O)c(-c4ccc(O)c(O)c4)oc23)cc1 | 0.76 µM |
| O=c1c(O)c(-c2ccc(O)c(O)c2)oc2cc(O)cc(O)c12 [QUERCETIN] | 7.7 µM |

system: CT26; experiment: Induction of apoptosis in mouse CT26 cells assessed as increase in late apoptotic cells at 5 to 20 uM incubated for 24 hrs by annexin V-FITC/PI staining based flow cytometry analysis; assay type: functional, cell-based; conditions: dose 5-20 µM

| SMILES | Activity |
| --- | --- |
| Cc1ccc(-c2c(O)cc(O)c3c(=O)c(O)c(-c4ccc(O)c(O)c4)oc23)cc1 | Active |

system: not listed separately; experiment: cells; conditions: Homo sapiens, HCT-116, 24 h
Description: Inhibition of Wnt pathway in human HCT-116 cells assessed as inhibition of Auxin2 expression incubated for 24 hrs by qPCR analysis

| SMILES | IC50 |
| --- | --- |
| Cc1ccc(-c2c(O)cc(O)c3c(=O)c(O)c(-c4ccc(O)c(O)c4)oc23)cc1 | 4.02 µM |
| O=c1c(O)c(-c2ccc(O)c(O)c2)oc2cc(O)cc(O)c12 [QUERCETIN] | 9.95 µM |
